assay: Human HepG2 cell viability assay in 384 well format; assay type: toxicity, cell-based; design: dose 125 nL, time 70.5 hour; concentration not given beside the values; settings: HepG2 cells, read-out: Inhibition

Row | Compound | cytotoxicity at 70.5 h [%]
1 | Cc1ncc2c(c1-c1noc(-c3cscn3)n1)CCNC2 | 7.48
2 | O=C1CCC2(CCNCC2)CN1Cc1nnc2ccccn12 | -5.01
3 | Cc1nc(NC(=O)N2CCCC(C(C)(C)O)C2)nn1C (configuration not stated) | -6.42
4 | CCc1nc(C)c([C@H]2CN(C)C[C@@H]2C(=O)NCc2ccccc2OC)[nH]1 | -2.21
5 | Nc1nc2c(c(N3CCN(C(=O)c4cccs4)CC3)n1)CCCC2 | -2.27
6 | CCNC(=O)[C@@H]1C[C@H](NC(=O)c2ccc(C)s2)CN1Cc1ccc(C)o1 | 16.1
7 | O=C(CNCc1ccccc1Cn1cccn1)Nc1cnccn1 | -9.54
8 | CN(C)C[C@@H]1CN(C(=O)Cc2ccc3ccccc3c2)C[C@@H]1CO | -8.64
9 | Cc1ccc(-c2nc(CN3C[C@@H](C)NC[C@@H]3C)c(C)o2)s1 | -11.5
10 | CCN(CCO)C[C@@H]1CN(c2cc(C(F)(F)F)cc(C)n2)C[C@@H]1CO | -8.43
11 | COc1cc(C(C)=O)ccc1OC12CCCN(CC1)C2 (configuration not stated) | 12.8
12 | COc1ccc(CN2CCCC(N3CCCC3)C2)cc1Cn1cncn1 (configuration not stated) | 10.6
13 | COc1cccc(N2CCN(C(=O)C(O)CC(C)C)CC2=O)c1 (configuration not stated) | -2.41
14 | Cn1cc(CNCC2(N3CCCCC3)Cc3ccccc3C2)cn1 | -4.33
15 | Cc1cccc(-c2nc(N)nc3c2CN(C(=O)C2CCCC2)C3C)c1 (configuration not stated) | -18.6
16 | Cc1cnccc1N1CCCN(C(=O)CCCn2ccnc2C)CC1 | -6.13
17 | CCc1cnc(N)nc1NCCc1ccc(OC)cc1OC | -0.653
18 | c1ccc2c(c1)CN(c1ncnc3sc4c(c13)CCNC4)CCO2 | 0.0341
19 | Clc1cc(N2CCN3CCCCC3C2)nc2[nH]ccc12 (configuration not stated) | -0.311
20 | CSc1ccc(C(C(=O)O)N2CCC(CO)CC2)cc1 (configuration not stated) | 25.1
21 | COc1cc(CN(Cc2ccccn2)CC(C)C)cc2c1OCO2 | -0.968
22 | COc1ccccc1C(O)CNc1nccc(-c2ccc(C)nc2C)n1 (configuration not stated) | -14
23 | CCc1nc(CCNS(=O)(=O)c2cccc(C(=O)N(C)CC)c2)cs1 | -16

Row | Compound | cytotoxicity at 70.5 h [%]
24 | CCn1ccnc1CN1CCN(Cc2ccc(C)o2)[C@@H]2CS(=O)(=O)C[C@@H]21 | -4.31
25 | C[C@@H]1CN(C(=O)c2cn(CCN3CCCCC3)nn2)C[C@H](C)O1 | -0.236
26 | CCC[C@H]1CN(c2cncc(C(=O)N3CCCCC3)n2)C[C@@H]1N(C)C | -3.35
27 | CCc1c(C)nc(C)nc1N1C[C@@H](CN(C)CCN(C)C)[C@@H](CO)C1 | -9.98
28 | CCc1noc(CN(CC)Cc2cc3ccc(C)cc3[nH]c2=O)n1 | 7.76
29 | C[C@@H]1CN(c2nc3c(cc2C(N)=O)CCC3)C[C@@]1(O)C1CCC1 | -11.3
30 | Cc1c(C(=O)N2CCC3(CCCNC3=O)C2)sc2nc[nH]c(=O)c12 (configuration not stated) | -7.46
31 | CC(C)c1nnsc1CNC(=O)C1CCN(C(=O)C2CCC2)CC1 | -5.12
32 | Cc1ccc(C)c2c(O)cc(CNCC(=O)N3CCCC3)nc12 | 22
33 | CCCc1cncnc1N1CCC2(CCC(=O)N(CCCO)C2)CC1 | -10.1
34 | Cc1nccn1CCCN1CCC2(CCC(=O)N(CC3CC3)C2)CC1 | -7.09
35 | COCC(=O)N1CCC2(CCCN(Cc3ccc(Cl)cc3)CC2)CC1 | 44.6
36 | Oc1cccc(CN2C[C@H]3CC[C@@H]2CN(Cc2ccncc2)C3)c1 | -12.3
37 | CCCn1ncc(CN(Cc2cccnc2)Cc2ccsc2)c1C | 16.8
38 | CO[C@H]1C[C@@H](O)C12CCN(CCCOc1ccc(C(N)=O)cc1)CC2 | -2.22
39 | COc1ccc2c(c1)OCC(CNC(=O)c1cnc(O)cn1)C2 (configuration not stated) | -3.99
40 | Cc1ccsc1[C@@H]1CCN(C(=O)CCCn2cncn2)C[C@H]1O | -7.81
41 | CNc1nc(N2CCN(C)C(CCO)C2)nc2c1CCC2 (configuration not stated) | 2.44
42 | COCC(=O)N1CCC2(CC1)c1ccccc1[C@@H](N1CCSCC1)[C@@H]2O | 4.64
43 | Cc1cnc(C)c(Oc2ccc(Cl)c(CN3CCCC3)c2Cl)n1 | 18.5
44 | O=C(c1ccc(-n2cnnc2)nc1)N1CCCC(O)(CO)CC1 (configuration not stated) | -22.7
45 | CC(C)c1nnsc1CN1CCc2[nH]nc(-c3ccc(F)c(F)c3)c2C1 | -11.6
46 | Cc1cc(N2CCN(Cc3ccsc3)C(CCO)C2)nc(N)n1 (configuration not stated) | -6.22

Row | Compound | cytotoxicity at 70.5 h [%]
47 | CN(Cc1ccncc1)CC1CCCN(CCc2ccc(Cl)cc2)C1 (configuration not stated) | -0.313
48 | CN(C)C(=O)c1ccc(-c2cccc3c2CCNC3)o1 | -5.11
49 | CCc1nnsc1C(=O)NCCC1CCCN(C(C)C)C1 (configuration not stated) | 24.8
50 | Cc1cnn(C2(C(=O)O)CCN(c3ccnc4cc(Cl)ccc34)CC2)c1 | -5.05
51 | Cc1ccc2nc(C3CCCN3Cc3csc(C)n3)[nH]c2c1 (configuration not stated) | -6.25
52 | COc1ccc(Cn2cc(C(=O)N(C)Cc3ccon3)nn2)cc1 | -3.92
53 | Cc1ccc2nc(C(=O)N3C[C@@H](C(=O)O)[C@H](c4ccccc4)C3)cn2c1 | -8.12
54 | COCCC(=O)N1CCCCC1c1ccc(F)cc1 (configuration not stated) | 5.22
55 | CCc1nc(N2CCC3(CC2)CC(=O)N(Cc2ccc(Cl)cc2)C3)no1 | -10.7
56 | Cc1nc2c(c(NCCc3nccs3)n1)CCN(CC1CC1)CC2 | -14.3
57 | O=C(NCc1nc[nH]n1)c1cc(COc2cccc(F)c2)[nH]n1 | 11.1
58 | Cn1ccnc1C(=O)N1CCCC(Cn2cc(CO)nn2)C1 (configuration not stated) | -1.24
59 | CN(C)c1cnn(CC(=O)N2CCN(Cc3cccs3)CC2)c(=O)c1 | -8.39
60 | COCc1cc(N2CCOC(c3ccc(Cl)cc3)C2)ncn1 (configuration not stated) | -10.8
61 | CC(C)NC(=O)CNC(C)COc1ccccc1 (configuration not stated) | -12.1
62 | c1ccc(CCc2noc(CN3CCC(N4CCSCC4)CC3)n2)cc1 | -2.58
63 | CCC(CNC(=O)c1cc(CC(C)C)nn1C)N(C)CC (configuration not stated) | -8.14
64 | Cc1n[nH]cc1C(=O)NCc1cccnc1N1CCc2ccccc2C1 | -3.05
65 | O=C(CN1C(=O)CCNC1=O)N1CCC(c2ccc(F)cc2)C1 (configuration not stated) | -5.75
66 | CN(C)CC1(O)CCCN(c2noc(-c3ccccc3)n2)CC1 (configuration not stated) | 6.79
67 | CN(C)Cc1csc(-c2nccn2Cc2ccsc2)c1 | 3.09
68 | CCNC(=O)C1CCN(c2cc(CC)nc3ccnn23)C1 (configuration not stated) | 15.1
69 | Cc1ccc2nc(CN(C)Cc3n[nH]c4c3CCCCC4)[nH]c2c1C | -3.25

Row | Compound | cytotoxicity at 70.5 h [%]
70 | CCC(C)Oc1ccccc1CN1Cc2ncccc2C1=O (configuration not stated) | 0.0852
71 | CCCn1cc(NC(=O)NCC2CCS(=O)(=O)C2)nn1 (configuration not stated) | -9.78
72 | CCc1cc(N(C)Cc2noc(CC(C)C)n2)ncn1 | 21.2
73 | O=C(CN1C[C@H]2CC[C@@H]1CN(Cc1ccccn1)C2)NCc1cccs1 | -7.94
74 | Cc1nc(CCNC2CCN(Cc3ccccc3)C2)sc1C (configuration not stated) | -4.05
75 | CC(CO)CN(Cc1ccccc1)Cc1cnc2ccccc2n1 (configuration not stated) | -8.82
76 | CCC[C@@H]1CN(C(=O)c2c(F)ccc(C)c2Cl)C[C@H]1C(=O)O | 0.166
77 | CCc1oc(C(=O)N(C)Cc2ccncc2)cc1CN(CC)CC | -6.93
78 | CCCOC(=O)N1CCCn2nc(C(=O)Nc3ccccc3)cc2C1 | -9.85
79 | O[C@@H]1CN(CC2CC2)CC[C@H]1N1CCN(c2ccccc2F)CC1 | 0.0849
80 | CCCc1nc(N2CCN(Cc3ccccn3)CC2)c2cnn(C)c2n1 | -6.11
81 | c1ccc(N2CCCC(c3nc(-c4cccnn4)no3)C2)nc1 (configuration not stated) | -11.5
82 | O=C1CC2(CCN(Cc3ncc[nH]3)CC2)CN1Cc1ccc(Cl)cc1 | -2.21
83 | COc1cccc(-c2n[nH]cc2C(=O)NC(C)c2n[nH]c(C)n2)c1 (configuration not stated) | 13.9
84 | CN1CCCN(c2cnn(Cc3ccncc3)c(=O)c2)CC1 | -9.95
85 | CCc1cc(N2CCC(NCCSc3nnnn3C)CC2)nc(C)n1 | -0.17
86 | Cc1nccn1CCC1CCN(c2ncccn2)CC1 | -6.44
87 | CCN(CC)CCN(C)c1nc(-c2ccc(Cl)cc2)nc2c1CNC2 | 20.6
88 | CN(CCCOc1ccccc1Cl)C(=O)CN1CCCCCC1=O | -0.255
89 | COc1cccc(CN2CCC(CO)(Cc3ccc(Cl)cc3)CC2)c1O | -5.98
90 | COc1ccc2c(C)c(C(=O)NC3CCCOC3)oc2c1 (configuration not stated) | -4.44
91 | N#Cc1ccccc1CN1CCCC(c2nccn2CC2CC2)C1 (configuration not stated) | 12.6
92 | CNC(=O)c1n[nH]c2c1C(c1cccc3[nH]ccc13)CC(=O)N2 (configuration not stated) | -3.23

Row | Compound | cytotoxicity at 70.5 h [%]
93 | O=C(O)c1cn(CC2CCCN(c3nccc4occc34)C2)nn1 (configuration not stated) | -14.6
94 | COCc1cc(CN(C)C(=O)CCC(=O)Nc2cc(C)ccc2F)n[nH]1 | -6.52
95 | CCn1cc(CN2CCCC(c3[nH]ncc3-c3ccc(F)cc3)C2)cn1 (configuration not stated) | -19.8
96 | CCc1nc(CN(C)c2nccc(N3CCCC(O)C3)n2)no1 (configuration not stated) | -0.51
97 | COc1ccc2c(c1)OCC(CNc1cc(N)nc(SC)n1)C2 (configuration not stated) | -0.598
98 | CC(C)(C)CCN1CCCC(Cn2cc(CCO)nn2)C1 (configuration not stated) | -9.34
99 | Cn1cc(CN(CC2(O)CCNC2)C2CCCCC2)cn1 (configuration not stated) | 5.59
100 | CN(CCCN1CCCC1)[C@@H]1c2ccccc2C2(CCNCC2)[C@H]1O | 14.4
101 | O=C1NCCN1CCNc1cc(-c2ccccc2)nc2ccnn12 | -2.75
102 | Cc1nn(C)c(C)c1NC(=O)c1cccc(CN2CC[C@H](O)C2)c1 | -0.546
103 | CCc1cc(N2CCC(F)(F)CC2)n2nc(C)c(C)c2n1 | -7.1
104 | Cc1[nH]nc(CCC(=O)NCC2CCN(C3CCCCC3)C2)c1C (configuration not stated) | -4.71
105 | Cc1cc(C)n(C2CN(C(=O)CN3C(=O)CSc4ccccc43)C2)n1 | 0.11
106 | Cc1ccc(OCC(=O)N2CCN[C@H]3CS(=O)(=O)C[C@H]32)cn1 | -16.7
107 | CS(=O)(=O)NCc1cc2n(n1)CCCN(Cc1cc3ccccc3o1)C2 | -5.83
108 | CCc1cnc(NCC(c2ccncc2)N2CCOCC2)nc1 (configuration not stated) | -6.68
109 | CN(C)CCN(C)c1ccc(-c2nc(COc3ccccc3)no2)cn1 | 6.86
110 | CCN(CC)Cc1cc(C(=O)N2CC(C)(C)[C@@](C)(O)C2)c(C)o1 | 8.35
111 | Cn1c(Cn2cccn2)nnc1C1CCN(Cc2cccnc2)CC1 | -3.7
112 | c1nc(N2CCc3nc[nH]c3C2)c2cc[nH]c2n1 | 2.38
